According to patent US7220775B2, “Compound useful for the treatment of neuropathic pain” (H. Lundbeck A/S, priority 2002, dated 2007):

How the values were obtained:
[1] = target: human histamine H1 receptor (Homo sapiens, UniProt P35367); experiment: Histamine H1 receptor binding; details: Table 10
From the text: (§1) Other receptors: Cell membranes expressing human dopamine D1, D2, D4 and rat D3 receptors were purchased through BioSignal, Inc. (Montreal, Canada). Binding assays using the histamine H, receptor; dopamine receptors; and α1A, α1B, and α2 adrenergic receptors may be carried out according to the procedures described in U.S. Pat. No. 5,780,485, the disclosure of which is hereby incorporated by reference in its entirety into this application. Binding assays using the dopamine D5 receptor may be carried out according to the procedures described in U.S. Pat. No. 5,882,855, the disclosure of which is hereby incorporated by reference in its entirety into this application. Binding assays for the human α1D adrenergic receptor may be carried out according to the procedures described in U.S. Pat. No. 6,156,518, the disclosure of which is hereby incorporated by reference in its entirety into this application.

Human 5HT2A receptor = target: T1, Human 5HT2A receptor (Homo sapiens, UniProt P28223); experiment: 5HT2A receptor binding ([3H]ketanserin); details: Table 8
T1 construct: expressed in transfected cells; host or cells: COS-7 cells, transient, vector pCEXV-3
Experimental: Human 5HT2A Receptor: The coding sequence of the human 5HT2A receptor was obtained from a human brain cortex cDNA library, and cloned into the cloning site of pCEXV-3 eukaryotic expression vector. This construct was transfected into COS-7 cells by the DEAE-dextran method (Cullen, 1987). Cells were harvested after 72 hours and lysed by sonication in 5 mM Tris-HCl, 5 mM EDTA, pH 7.5. The cell lysates were subjected to centrifugation at 1000 rpm for 5 minutes at 4° C., and the supernatant was subjected to centrifugation at 30,000×g for. 20 minutes at 4° C. The pellet was suspended in 50 mM Tris-HCl buffer (pH 7.7 at room temperature) containing 10 mM MgSO4, 0.5 mM EDTA, and 0.1% ascorbate. The affinity of compounds at 5HT2A receptors were determined in equilibrium competition binding assays using [^3H]ketanserin (1 nM). Nonspecific binding was defined by the addition of 10 μM mianserin. The bound radioligand was separated by filtration through GF/B filters using a cell harvester.

[2] = target: T2, human dopamine D2 receptor (Homo sapiens, UniProt P14416); experiment: Dopamine D2 receptor binding; details: Table 10
T2 construct: purchased BioSignal, Inc. (Montreal, Canada)
From the text: as §1

Human 5HT1E receptor = target: T3, Human 5HT1E receptor (Homo sapiens, UniProt P28566); experiment: 5HT1E receptor binding ([3H]-serotonin); details: Table 8
T3 construct: expressed in transfected cells
Experimental: Human 5HT1B, 5HT1D, 5HT1E, 5HT1F, and 5HT7 Receptors: The cell lysates of LM(tk−) clonal cell line stably transfected with the genes encoding each of these 5HT receptor-subtypes were prepared as described above. Cell membranes were suspended in 50 mM Tris-HCl buffer (pH 7.4 at 37° C.) containing 10 mM MgCl2, 0.2 mM EDTA, 10 µM pargyline, and 0.1% ascorbate. […] Nonspecific binding was determined in the presence of 10 μM serotonin. The bound radioligand was separated by filtration through GF/B filters using a cell harvester.

[3] = tested on: NE transporter (rNE Uptk); experiment: Binding at native NE transporter; set-up: species or system rat; details: Table 8
Experimental: (§2) The binding properties of the compounds of the present invention were evaluated at one or more cloned receptors or native, tissue-derived transporters, using protocols described below.
(§3) The methods to determine binding affinity at native transporters are described in the following publications: 5HT transporter and NE transporter (Owens et al., 1997), and DA transporter (Javitch et al, 1984).

[4] = target: NE transporter (rNE Uptk) (Rattus norvegicus, UniProt Q9WTR4); experiment: Binding at native NE transporter; details: Table 7, native transporter
Experimental: as §2, §3

rat D3 receptor = target: T4, rat D3 receptor (Rattus norvegicus, UniProt P19020); experiment: Dopamine D3 receptor binding; details: Table 10
T4 construct: purchased BioSignal, Inc. (Montreal, Canada)
From the text: as §1

Chain of human histamine H1 receptor (P35367 whole entry): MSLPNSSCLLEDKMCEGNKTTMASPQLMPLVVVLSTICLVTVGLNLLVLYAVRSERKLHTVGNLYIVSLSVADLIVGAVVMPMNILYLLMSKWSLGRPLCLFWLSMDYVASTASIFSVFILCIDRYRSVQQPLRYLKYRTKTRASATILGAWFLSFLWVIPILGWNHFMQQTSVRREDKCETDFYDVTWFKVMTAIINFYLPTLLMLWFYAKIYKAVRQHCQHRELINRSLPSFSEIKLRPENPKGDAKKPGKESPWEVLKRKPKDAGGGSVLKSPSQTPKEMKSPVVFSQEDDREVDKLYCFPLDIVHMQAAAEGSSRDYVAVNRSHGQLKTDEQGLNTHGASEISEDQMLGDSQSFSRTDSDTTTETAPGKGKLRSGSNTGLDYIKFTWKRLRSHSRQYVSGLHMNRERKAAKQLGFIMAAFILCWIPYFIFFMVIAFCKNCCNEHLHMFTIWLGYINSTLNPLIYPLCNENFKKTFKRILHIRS
T1 sequence (P28223 whole entry): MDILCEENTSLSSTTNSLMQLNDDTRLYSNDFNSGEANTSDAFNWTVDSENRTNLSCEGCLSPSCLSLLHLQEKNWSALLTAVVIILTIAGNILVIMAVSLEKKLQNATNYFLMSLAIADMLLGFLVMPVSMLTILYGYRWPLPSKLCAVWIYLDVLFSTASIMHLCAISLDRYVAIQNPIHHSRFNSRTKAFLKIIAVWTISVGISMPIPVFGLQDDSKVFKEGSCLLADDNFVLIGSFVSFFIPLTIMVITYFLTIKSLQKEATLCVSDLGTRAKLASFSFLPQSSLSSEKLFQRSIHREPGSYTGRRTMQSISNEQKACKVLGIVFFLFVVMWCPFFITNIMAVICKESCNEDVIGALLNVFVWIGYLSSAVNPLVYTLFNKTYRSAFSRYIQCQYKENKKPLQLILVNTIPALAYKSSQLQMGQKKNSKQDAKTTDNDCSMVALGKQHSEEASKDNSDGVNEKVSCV
T3 sequence (P28566 whole entry): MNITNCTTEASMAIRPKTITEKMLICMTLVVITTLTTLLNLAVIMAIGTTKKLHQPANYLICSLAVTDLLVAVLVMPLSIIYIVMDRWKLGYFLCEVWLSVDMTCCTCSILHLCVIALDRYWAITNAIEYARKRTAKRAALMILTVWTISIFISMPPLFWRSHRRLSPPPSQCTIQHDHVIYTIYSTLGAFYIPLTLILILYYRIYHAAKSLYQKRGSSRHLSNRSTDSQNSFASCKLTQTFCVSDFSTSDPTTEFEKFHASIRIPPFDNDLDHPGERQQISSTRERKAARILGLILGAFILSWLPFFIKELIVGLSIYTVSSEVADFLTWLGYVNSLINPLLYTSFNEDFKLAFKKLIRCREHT
T4 sequence (P19020 whole entry): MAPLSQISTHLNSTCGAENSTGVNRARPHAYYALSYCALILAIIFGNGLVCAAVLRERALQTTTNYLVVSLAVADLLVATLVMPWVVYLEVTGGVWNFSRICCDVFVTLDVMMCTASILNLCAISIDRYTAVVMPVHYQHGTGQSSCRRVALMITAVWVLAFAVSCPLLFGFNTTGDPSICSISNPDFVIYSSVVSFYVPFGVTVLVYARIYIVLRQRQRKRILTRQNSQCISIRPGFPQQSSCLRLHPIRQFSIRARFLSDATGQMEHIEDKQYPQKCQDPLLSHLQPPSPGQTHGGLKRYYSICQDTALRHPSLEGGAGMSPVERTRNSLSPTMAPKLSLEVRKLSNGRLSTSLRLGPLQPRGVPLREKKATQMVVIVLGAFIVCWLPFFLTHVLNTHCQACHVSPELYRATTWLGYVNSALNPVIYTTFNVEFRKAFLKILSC
T2 sequence (P14416 whole entry): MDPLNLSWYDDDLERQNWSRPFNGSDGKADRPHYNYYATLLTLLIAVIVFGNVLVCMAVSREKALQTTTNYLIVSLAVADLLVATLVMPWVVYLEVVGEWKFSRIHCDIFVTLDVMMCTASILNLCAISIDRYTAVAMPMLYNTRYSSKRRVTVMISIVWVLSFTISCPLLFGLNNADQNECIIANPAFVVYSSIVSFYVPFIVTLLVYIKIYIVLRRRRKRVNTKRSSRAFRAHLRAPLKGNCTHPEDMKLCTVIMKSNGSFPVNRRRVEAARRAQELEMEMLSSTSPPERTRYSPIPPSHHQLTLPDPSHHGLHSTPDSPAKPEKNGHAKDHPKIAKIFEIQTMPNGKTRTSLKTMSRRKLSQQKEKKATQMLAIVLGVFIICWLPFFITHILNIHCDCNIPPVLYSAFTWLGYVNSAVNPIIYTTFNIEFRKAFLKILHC

SMILES: O=C1C(=Nc2cccc(C(F)(F)F)c2)c2ccccc2N1c1ccccc1 [Example 92, 1-PHENYL-3-[[3-(TRIFLUOROMETHYL)PHENYL]IMINO]-1,3-DIHYDRO-2H-INDOL-2-ONE]
- selectivity ratio hH1 (Ki hH1 / Ki hGAL3) [1]: >100
- selectivity ratio h5HT2A (Ki h5HT2A / Ki hGAL3) (Human 5HT2A receptor): >100
- selectivity ratio hD2 (Ki hD2 / Ki hGAL3) [2]: >100
- selectivity ratio h5HT1E (Ki h5HT1E / Ki hGAL3) (Human 5HT1E receptor): >100
- selectivity ratio rNE Uptk (Ki rNE Uptk / Ki hGAL3) [3]: >100
- Ki [4]: 33.9 µM
- selectivity ratio rD3 (Ki rD3 / Ki hGAL3) (rat D3 receptor): >100
